# According to patent publication US20220202859A1, “CANCER TREATMENT USING CD38 INHIBITOR AND/OR LENALIDOMIDE AND T-CELLS EXPRESSING A CHIMERIC ANTIGEN RECEPTOR” (CRISPR THERAPEUTICS AG, priority 2020, published 2022):
# Experiments:
# MM.1S tumors = experiment: Daratumumab plus anti-BCMA CAR-T cells in subcutaneous MM.1S xenograft model; type: in vivo, NOG mice; settings: high dose 2.4×10^6 CAR+ T cells iv day 0; daratumumab 15 mg/kg IP twice weekly
# Method: The effect of combining daratumumab with anti-BCMA CAR-T cell treatment was tested in a subcutaneous MM.1S xenograft model in immunocompromised NOG mice (NOD.Cg-Prkdc^scidIl2rg^tm1Sug/JicTac). In brief, 5 to 8-week old female NOG mice were individually housed in ventilated microisolator cages and maintained under pathogen-free conditions. The animals each received a subcutaneous inoculation in the right flank of 5×10^6 MM.1S cells in 50% Matrigel. When the mean tumor volume reached 150 mm^3 (approximately 125 to 175 mm^3), the mice were randomized into groups with 5 mice per group. Tested groups included an untreated arm, daratumumab only treatment, anti-BCMA CAR-T cell only treatment (low dose or high dose), and anti-BCMA CAR-T cell (low dose or high dose) in combination with daratumumab. Anti-BCMA CAR-T cells were dosed by intravenous injection of 0.8×10^6 (low dose) or 2.4×10^6 (high dose) CAR^+ T cells at day 0. Daratumumab was dosed IP at 15 mg/kg, twice weekly, starting 2 days prior to anti-BCMA CAR-T cell dosing.
# Tumor volume and body weights were measured twice weekly and individual mice were euthanized when their tumor volume reached ≥2000 mm^3.
# T cells = experiment: Daratumumab in PBMC culture: T cell frequency and numbers; type: cell-based, human; settings: 0.01, 0.1 or 1 μg/mL, 96 hours
# Method: (§1) Based on the expression levels of CD38 on NK and T cells, the effect of an anti-CD38 antibody, daratumumab (TAB-236, Creative Biolabs), on such cells was assessed. PBMCs from a healthy donor were cultured for 96 hours in media containing 0.01, 0.1, or 1 μg/mL of daratumumab. The effect of 10% complement on the cell cultures was also tested. Untreated cells and cells treated with 0.01, 0.1 or 1 μg/mL isotype control mAb (human IgG1k) (cat #403501, BioLegend) were used as controls. After 96 hours of culture, NK and T cell frequency and numbers were measured.
# NK cells [1] = experiment: NK cell-mediated CAR T cell lysis after daratumumab pre-treatment of NK cells (DAPI cell-kill assay); type: cell-based, human
# Method: To determine if daratumumab blunts NK-cell mediated CAR T cell lysis, anti-BCMA CAR T cells were co-cultured with purified NK cells that were pre-treated for 60 hours with either daratumumab or isotype control mAb at concentrations of 0.01, 0.1, or 1 μg/mL (FIG. 13A). At the end of the 60 hour pre-treatment period, 50,000 efluor-labelled anti-BCMA CAR T cells were added to the plate containing 150,000 NK cells and Dara/isotype control, and incubated for an additional 24 hours. At the end of the 24-hour co-culture period, anti-BCMA CAR T cell lysis was measured in a cell-kill assay with DAPI.
# Specifically, the anti-BCMA CAR T cells were labeled with 5 μM efluor670 (Cat #65-0840-90; ThermoFisher Scientific), washed and incubated in co-cultures with the NK cells at a 3:1 (NK:T) ratio. The co-culture was incubated 24 hr. After incubation, wells were washed and media was replaced with 150 μL of 1× FACS buffer containing a 1:500 dilution of 5 mg/mL DAPI (Molecular Probes) and 12.5 μL of CountBright beads (C36950; ThermoFisher Scientific).
# To determine if 10 μg/mL daratumumab blunts NK-cell mediated CAR T cell lysis, anti-BCMA CAR T cells deficient in B2M were co-cultured with purified NK cells that were pre-treated for 60 hours with either daratumumab or isotype control mAb at concentrations of 0.1, 1 or 10 μg/mL. Briefly, NK cells were plated at 50,000 or 150,000 cells per well and treated with daratumumab or the isotype control at concentrations of 0, 0.1, 1 and 10 μg/mL. After 60 hours of treatment of NK cells with daratumumab, the anti-BCMA CAR T cells were labeled with 5 μM efluor670 (Cat #65-0840-90; ThermoFisher Scientific), washed and seeded at 50,000 cells per well in co-cultures with the daratumumab-treated NK cells to make 1:1 or 3:1 (NK:T) ratio. The co-culture was incubated for further 24 hr. […] The cells were analyzed for cell viability by flow cytometry (i.e., viable cells being negative for DAPI staining) Pre-treatment with daratumumab protected anti-BCMA CAR T cell from NK induced cell lysis in a dose-dependent manner (FIGS. 14B-14C). […]
# NK cells [2] = experiment: High daratumumab concentrations in NK/CAR T co-culture: NK cell numbers; type: cell-based, human; settings: 72 hours
# Method: (§2) Daratumumab is prescribed in the clinic at a dose of 16 mg/kg (225 μg/mL equivalent). To determine the effect of daratumumab at high concentrations on NK and CAR T cells, anti-BCMA CAR T cells deficient in B2M were co-cultured with purified NK cells that were pre-treated for 60 hours with either human IgGl^-k or daratumumab, each at concentrations of 0.01, 0.1, 1, 10, 100 or 300 μg/mL using methods as described in the previous examples. Flow cytometry was used to assess NK and CAR T cells numbers 72 hours after co-culturing with pre-treated NK cells using methods as described in the previous examples.
# multiple myeloma = settings: third-line or fourth-line therapy; approximate; cited from earlier work
# [3] = human, in vivo; cited from earlier work
# anti-BCMA CAR T cells [4] = experiment: Daratumumab on anti-BCMA CAR T cell numbers, frequency and activation; type: cell-based, human
# Method: To assess whether daratumumab treatment affects CAR T cells with a disrupted β2M gene, anti-BCMA CAR T cells generated in Example 1 were treated with daratumumab with or without 10% complement. After a 72 hour culture period, anti-BCMA CAR T cell numbers and frequency were measured in a flow cytometry assay as described in Example 3 (FIGS. 12A-12B).
# To determine if higher concentrations of daratumumab (10 μg/mL) activates CAR T cells and causes subsequent proliferation or activation-induced cell death, anti-BCMA CAR T cells deficient in B2M were cultured with daratumumab at concentrations of 0.1, 1 or 10 μg/mL for 24 hours. Untreated cells or anti-BCMA CAR T cells deficient in B2M treated with IgG1k isotype control mAb were used as controls.
# anti-BCMA CAR T cells [5] = experiment: High daratumumab concentrations in NK/CAR T co-culture: CAR T cell numbers; type: cell-based, human; settings: up to 300 μg/mL; 72 hours
# Method: as §2
# NK cells [6] = experiment: Daratumumab in PBMC culture: NK cell frequency and numbers; type: cell-based, human
# Method: as §1, with “PBMCs from a healthy donor were cultured for 96 hours in media containing 0.01, 0.1, or 1 μg/mL of daratumumab.” left out
substance,measurement,setting,value
daratumumab: fully human IgGκ monoclonal antibody that targets CD38,mean tumor volume at day 26,MM.1S tumors,1475 mm^3
same,T cell numbers or frequency,T cells,did not affect T cell numbers or frequency
same,protective effect against anti-BCMA CAR T cell lysis,"NK cells [1]; 1:1 NK:T ratio, 0.1 μg/mL, 60 hours pre-treatment",91%
same,protection from NK cell lysis,"NK cells [1]; 3:1 NK:CAR T ratio, 1 μg/mL, 60 hours pre-treatment",85%
same,anti-BCMA CAR T cell lysis by pre-treated NK cells,"NK cells [1]; NK cells pre-treated 60 hours at 0.01, 0.1 or 1 μg/mL, 3:1 NK:T, 24 hr co-culture",reduced anti-BCMA CAR T cell lysis in a dose-dependent manner
same,decrease in NK cells,NK cells [2]; 1 μg/mL,29%
same,further decrease in NK cells,NK cells [2]; 300 μg/mL,38%
same,historical ORR,multiple myeloma,~30%
same,hepatitis B reactivation,[3],1%
same,herpes zoster reactivation,[3],2%
same,activation of CAR T cells,anti-BCMA CAR T cells [4],did not induce activation of CAR T cells
same,B2M deficient CAR T cell numbers,"anti-BCMA CAR T cells [4]; 10 μg/mL, 24 hours",did not significantly reduce B2M deficient CAR T cells numbers
same,anti-BCMA CAR T cell numbers or frequency,"anti-BCMA CAR T cells [4]; 72 hour culture, with or without 10% complement",did not affect anti-BCMA CAR T cells numbers or frequency
same,BCMA CAR T cell numbers,anti-BCMA CAR T cells [5],unaffected by the high daratumumab concentrations
same,reduction of NK cell numbers,"NK cells [6]; 1 μg/mL, 96 hours",approximately 75%
same,NK cell frequency and numbers,"NK cells [6]; 0.01, 0.1 or 1 μg/mL, 96 hours",dose-dependent decrease of NK cell frequency and numbers
same,reduction of NK cell numbers,"NK cells [6]; PBMCs from a different donor, 72 hours",~57%
same,complement dependence of NK cell reduction,NK cells [6]; addition of 10% complement,not complement dependent
